Measurements from ChEMBL document CHEMBL1146669, “The development of potent non-peptidic PTP-1B inhibitors” (Bioorg Med Chem Lett, 2004).
“And” between values parts separate entries of the source, which are not always exact repeats. Equal values may be shown once.

Legend:
[1] = biological target: T1, Receptor-type tyrosine-protein phosphatase C (Homo sapiens, UniProt P08575); assay: In vitro inhibitory activity against CD45 protein-tyrosine phosphatase
T1 sequence (P08575 whole entry): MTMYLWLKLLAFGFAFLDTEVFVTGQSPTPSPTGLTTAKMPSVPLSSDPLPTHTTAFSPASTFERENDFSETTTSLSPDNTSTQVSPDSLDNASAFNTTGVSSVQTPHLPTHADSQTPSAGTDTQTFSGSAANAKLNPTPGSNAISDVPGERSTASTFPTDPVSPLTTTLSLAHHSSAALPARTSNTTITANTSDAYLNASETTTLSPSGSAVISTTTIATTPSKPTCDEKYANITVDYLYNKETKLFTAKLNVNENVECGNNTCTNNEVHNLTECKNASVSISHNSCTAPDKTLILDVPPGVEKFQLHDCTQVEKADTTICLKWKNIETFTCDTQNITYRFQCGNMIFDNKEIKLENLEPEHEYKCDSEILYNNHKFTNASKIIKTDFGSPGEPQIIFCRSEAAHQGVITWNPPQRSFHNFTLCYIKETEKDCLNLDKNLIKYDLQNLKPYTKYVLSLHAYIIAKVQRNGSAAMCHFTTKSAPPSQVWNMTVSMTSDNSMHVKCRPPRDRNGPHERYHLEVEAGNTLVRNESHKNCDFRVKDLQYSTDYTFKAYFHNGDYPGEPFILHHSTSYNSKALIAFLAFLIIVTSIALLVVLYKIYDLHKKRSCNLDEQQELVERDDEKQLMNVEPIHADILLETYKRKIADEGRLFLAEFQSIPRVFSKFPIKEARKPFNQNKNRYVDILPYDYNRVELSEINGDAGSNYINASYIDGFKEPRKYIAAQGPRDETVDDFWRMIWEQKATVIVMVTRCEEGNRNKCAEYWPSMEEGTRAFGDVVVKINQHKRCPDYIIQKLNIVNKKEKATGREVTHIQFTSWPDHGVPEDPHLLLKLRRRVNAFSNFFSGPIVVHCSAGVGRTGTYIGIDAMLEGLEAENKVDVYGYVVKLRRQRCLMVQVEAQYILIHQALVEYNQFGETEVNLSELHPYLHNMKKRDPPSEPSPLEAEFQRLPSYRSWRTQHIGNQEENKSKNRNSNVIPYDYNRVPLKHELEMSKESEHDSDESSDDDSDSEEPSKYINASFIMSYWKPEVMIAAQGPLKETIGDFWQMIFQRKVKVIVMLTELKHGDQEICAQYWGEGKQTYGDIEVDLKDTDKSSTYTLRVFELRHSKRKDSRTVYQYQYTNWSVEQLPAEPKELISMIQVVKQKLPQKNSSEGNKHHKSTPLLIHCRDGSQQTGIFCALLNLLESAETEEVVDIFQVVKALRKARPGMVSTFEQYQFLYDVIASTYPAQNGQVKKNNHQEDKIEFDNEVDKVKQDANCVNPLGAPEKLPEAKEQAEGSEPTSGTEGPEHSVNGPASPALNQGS

[2] = biological target: T2, Tyrosine-protein phosphatase non-receptor type 1 (Homo sapiens, UniProt P18031); assay: In vitro inhibitory activity against protein tyrosine phosphatase 1B (PTP1B) was determined in fluorescein diphosphate (FDP) assay
T2 sequence (P18031 whole entry): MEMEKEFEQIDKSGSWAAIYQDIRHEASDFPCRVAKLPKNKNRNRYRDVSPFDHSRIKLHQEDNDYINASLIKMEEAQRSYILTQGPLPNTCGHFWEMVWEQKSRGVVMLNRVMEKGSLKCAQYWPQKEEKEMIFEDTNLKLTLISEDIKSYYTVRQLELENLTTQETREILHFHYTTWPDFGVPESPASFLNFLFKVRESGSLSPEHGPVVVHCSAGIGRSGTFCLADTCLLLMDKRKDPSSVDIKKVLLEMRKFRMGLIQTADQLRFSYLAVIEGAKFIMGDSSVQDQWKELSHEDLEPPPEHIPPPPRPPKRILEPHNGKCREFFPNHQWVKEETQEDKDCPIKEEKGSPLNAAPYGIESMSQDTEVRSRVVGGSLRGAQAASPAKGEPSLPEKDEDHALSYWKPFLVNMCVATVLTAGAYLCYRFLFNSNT

[3] = biological target: T2, Tyrosine-protein phosphatase non-receptor type 1; assay: In vitro inhibitory activity against Protein tyrosine phosphatase 1B (PTP1B) over-expressed in intact Sf9 cell assay
[4] = Half life in ob/ob mice; format: ADME, organism-based; settings: mouse, in vivo
[5] = Oral bioavailability in rat; format: ADME, organism-based; settings: in vivo
[6] = Maximal concentration in rat was determined; format: ADME, organism-based; settings: in vivo
[7] = In vitro inhibitory activity against Protein tyrosine phosphatase 1B (PTP1B) over-expressed in intact Sf9 cell assay; NA denotes not active

IC50 [1]	IC50 [2]	IC50 [3]	half-life [4]	IC50 [7]	SMILES	bioavailability [5]	Cmax [6]
25 µM	0.09 µM	1.7 µM	–	–	CC(=O)NS(=O)(=O)c1ccc(CC(Cc2ccc(C(F)(F)P(=O)(O)O)cc2)(C(=O)OCc2ccccc2)C(=O)OCc2ccccc2)cc1	–	–
> 50 µM	0.06 µM and 0.19 µM	0.58 µM and 1.5 µM	–	–	O=C(c1ccccc1)C(Cc1ccc(C(F)(F)P(=O)(O)O)cc1)(Cc1ccc(C(F)(F)P(=O)(O)O)cc1)c1ccccc1	–	–
> 50 µM	2 µM	16 µM	–	–	O=C(c1ccccc1)C(Cc1ccc(C(F)(F)P(=O)(O)O)cc1)c1ccccc1 (configuration not stated)	–	–
19 µM	0.06 µM	0.54 µM	–	–	O=C(OCc1ccccc1)C(Cc1ccc(C(F)(F)P(=O)(O)O)cc1)(Cc1ccc(C(F)(F)P(=O)(O)O)cc1)C(=O)OCc1ccccc1	–	–
> 50 µM	0.94 µM	7.2 µM	–	–	CS(=O)(=O)c1ccc(CC(Cc2ccc(C(F)(F)P(=O)(O)O)cc2)(C(=O)OCc2ccccc2)C(=O)OCc2ccccc2)cc1	–	–
> 50 µM	0.16 µM	1.3 µM	–	–	O=P(O)(O)C(F)(F)c1ccc(CC(Cc2ccc(C(F)(F)P(=O)(O)O)cc2)(OCc2ccccc2)OCc2ccccc2)cc1	–	–
> 50 µM	0.36 µM	2.4 µM	–	–	O=C(c1ccccc1)C(Cc1ccc(C(F)(F)P(=O)(O)O)c(Cl)c1)c1ccccc1 (configuration not stated)	–	–
> 50 µM	0.8 µM	6.63 µM	–	–	O=C(O)c1ccc(CC(Cc2ccc(C(F)(F)P(=O)(O)O)cc2)(C(=O)c2ccccc2)c2ccccc2)cc1 (configuration not stated)	–	–
> 50 µM	0.19 µM	1 µM	< 30 min	–	COC(=O)C(Cc1ccc(C(F)(F)P(=O)(O)O)cc1)(Cc1ccc(C(F)(F)P(=O)(O)O)cc1)C(=O)OCc1ccccc1	–	–
> 50 µM	0.11 µM	1.65 µM	–	–	CC(C)OC(=O)C(Cc1ccc(C(F)(F)P(=O)(O)O)cc1)(Cc1ccc(C(F)(F)P(=O)(O)O)cc1)C(=O)OC(C)C	–	–
> 50 µM	0.04 µM	1.9 µM	–	–	O=C(OCc1ccccc1)C(Cc1ccc(C(F)(F)C(=O)O)cc1)(Cc1ccc(C(F)(F)P(=O)(O)O)cc1)C(=O)OCc1ccccc1	–	–
> 50 µM	16 µM	–	–	Not Active	O=C(c1ccccc1)C(Cc1ccc(C(F)(F)P(=O)(O)O)c(-c2ccccc2)c1)c1ccccc1 (configuration not stated)	–	–
> 50 µM	0.39 µM	3.8 µM	–	–	COC(=O)C(Cc1ccc(C(F)(F)P(=O)(O)O)cc1)(Cc1ccc(C(F)(F)P(=O)(O)O)cc1)C(=O)O	–	–
5.5 µM	0.19 µM	2 µM	–	–	O=C(c1ccccc1)C(C/C=C/c1ccccc1)(Cc1ccc(C(F)(F)P(=O)(O)O)cc1)c1ccccc1 (configuration not stated)	–	–

SMILES	IC50 [1]	IC50 [2]	IC50 [3]	half-life [4]	IC50 [7]	bioavailability [5]	Cmax [6]
O=C(c1ccccc1)C(Cc1ccc(C(F)(F)P(=O)(O)O)c(Br)c1)c1ccccc1 (configuration not stated)	> 50 µM	–	1.22 µM	–	–	13%	35 µM
